US20150197492A1, “NOVEL INDENO[1,2-c]QUINOLIN-11-ONE DERIVATIVES, PREPARATION METHOD AND APPLICATION THEREOF” (National Defense Medical Center, priority 2014, published 2015)

Assays:
Experiment in all cases: cells
Format in all cases: cell-based
COLO 205 = COLO 205 (Colon Cancer), 10 μM, 48 hours
MCF7 = MCF7 (Breast Cancer), 10 μM, 48 hours
K-562 = K-562 (Leukemia), 10 μM, 48 hours
IGROV1 = IGROV1 (Ovarian Cancer), 10 μM, 48 hours
HL-60 (TB) = HL-60 (TB) (Leukemia), 10 μM, 48 hours
SK-OV-3 = SK-OV-3 (Ovarian Cancer), 10 μM, 48 hours
HCT-116 = HCT-116 (Colon Cancer), 10 μM, 48 hours
M14 = M14 (Melanoma), 10 μM, 48 hours
TK-10 = TK-10 (Renal Cancer), 10 μM, 48 hours
NCI/ADR-RES = NCI/ADR-RES (Ovarian Cancer), 10 μM, 48 hours
NCI-H23 = NCI-H23 (Non-Small Cell Lung Cancer), 10 μM, 48 hours
NCI-H226 = NCI-H226 (Non-Small Cell Lung Cancer), 10 μM, 48 hours
HCC-2998 = HCC-2998 (Colon Cancer), 10 μM, 48 hours
SF-268 = SF-268 (CNS Cancer), 10 μM, 48 hours
UO-31 = UO-31 (Renal Cancer), 10 μM, 48 hours
MDA-MB-231/ATCC = MDA-MB-231/ATCC (Breast Cancer), 10 μM, 48 hours
NCI-H460 = NCI-H460 (Non-Small Cell Lung Cancer), 10 μM, 48 hours
SF-539 = SF-539 (CNS Cancer), 10 μM, 48 hours
RPMI-8226 = RPMI-8226 (Leukemia), 10 μM, 48 hours
A549/ATCC = A549/ATCC (Non-Small Cell Lung Cancer), 10 μM, 48 hours
RXF 393 = RXF 393 (Renal Cancer), 10 μM, 48 hours
HOP-62 = HOP-62 (Non-Small Cell Lung Cancer), 10 μM, 48 hours
A498 = A498 (Renal Cancer), 10 μM, 48 hours
SNB-75 = SNB-75 (CNS Cancer), 10 μM, 48 hours
SK-MEL-5 = SK-MEL-5 (Melanoma), 10 μM, 48 hours
SW-620 = SW-620 (Colon Cancer), 10 μM, 48 hours
HCT-15 = HCT-15 (Colon Cancer), 10 μM, 48 hours

SMILES | growth percentage (COLO 205) [%] | growth percentage (MCF7) [%] | growth percentage (K-562) [%] | growth percentage (IGROV1) [%] | growth percentage (HL-60 (TB)) [%] | growth percentage (SK-OV-3) [%] | growth percentage (HCT-116) [%] | growth percentage (M14) [%] | growth percentage (NCI/ADR-RES) [%] | growth percentage (NCI-H23) [%] | growth percentage (NCI-H226) [%] | growth percentage (HCC-2998) [%] | growth percentage (SF-268) [%] | growth percentage (UO-31) [%] | growth percentage (MDA-MB-231/ATCC) [%] | growth percentage (NCI-H460) [%] | growth percentage (SF-539) [%] | growth percentage (RPMI-8226) [%] | growth percentage (A549/ATCC) [%] | growth percentage (RXF 393) [%] | other results
COc1cccc(N2CCN(c3nc4ccccc4c4c3-c3ccc(Cl)cc3C4=O)CC2)c1 [SJ-20, 9-Chloro-6-(4-(3-methoxyphenyl)piperazin-1-yl)-11H-indeno[1,2-c]quinolin-11-one] | 106.63 | 77.46 | 94.25 | 80.87 | 99.09 | 86.02 | 93.02 | 105.07 | 92.82 | 87.22 | 89.19 | 105.79 | 83.89 | 86.64 | 79.81 | 101.76 | 83.97 | 93.63 | 101.22 | 78.38 | growth percentage (TK-10): 133.34%; growth percentage (HOP-62): 90.22%; growth percentage (A498): 104.53%; growth percentage (SNB-75): 37.76%; growth percentage (SK-MEL-5): 96.87%; growth percentage (SW-620): 91.16%; growth percentage (HCT-15): 100.39%
O=C1c2cc(Cl)ccc2-c2c(N3CCN(c4ccccc4)CC3)nc3ccccc3c21 [SJ-16, 9-Chloro-6-(4-phenylpiperazin-1-yl)-11H-indeno[1,2-c]quinolin-11-one] | 102.19 | 53.31 | 95.17 | 65.13 | 105.45 | 78.58 | 78.18 | 97.52 | 97.88 | 83.34 | 79.43 | 106.23 | 85.45 | 65.02 | 73.80 | 97.04 | 83.17 | 95.33 | 90.89 | 72.95 | growth percentage (TK-10): 115.61%; growth percentage (A498): 97.48%; growth percentage (SNB-75): 33.20%; growth percentage (SK-MEL-5): 99.23%; growth percentage (SW-620): 93.14%; growth percentage (HCT-15): 80.71%
O=C1c2cc(Cl)ccc2-c2c(N3CCN(C4CCCC4)CC3)nc3ccccc3c21 [SJ-14, 9-Chloro-6-(4-cyclopentylpiperazin-1-yl)-11H-indeno[1,2-c]quinolin-11-one] | 104.54 | 75.18 | 99.26 | 85.84 | 103.04 | 96.85 | 91.34 | 105.34 | 100.39 | 92.80 | 92.80 | 106.04 | 96.39 | 72.57 | 82.96 | 101.46 | 101.34 | 94.89 | 101.56 | 95.60 | growth percentage (HOP-62): 108.83%; growth percentage (A498): 88.64%; growth percentage (SNB-75): 86.36%; growth percentage (SK-MEL-5): 97.48%; growth percentage (SW-620): 93.06%; growth percentage (HCT-15): 89.64%
